These results are taken from publication PMC11234460, “In Silico Discovery of Stapled Peptide Inhibitor Targeting the Nur77‐PPARγ Interaction and Its Anti‐Breast‐Cancer Efficacy” (Advanced Science, 2024).

One data set addresses T1, Nur77-LBD (Homo sapiens, UniProt P22736).
T1 construct: The LBD fragment of human Nur77 (residues 351–598), tagged with an N‐terminal His6‐tag; His6 (N); made in house; host or cells: Escherichia coli BL21(DE3)
The data set can be described thus: Surface plasmon resonance (SPR), Biacore T200. The format is binding. To be noted: read-out: ka (SPR). As for the experimental part: ST‐CY14 with Nur77‐LBD was detected by SPR using the Biacore T200 system at 25 °C. Recombinant human Nur77‐LBD protein was immobilized on an activated carboxymethylated 5 sensor chip (GE Healthcare) using the amine coupling method. Gradient concentrations of […] were injected at a flow rate of 30 µL min^−1 in a running buffer (1% DMSO in PBS). The results were analyzed with Biacore evaluation software (T200 version 2.0). The data were fitted to the 1:1 Langmuir binding model, and kinetic parameters were derived.
For orientation: In SPR one partner is held on a chip, and binding of the other changes the refractive index at the surface.

In a further data set the target is T2, Nur77-PPARγ interaction (Homo sapiens, UniProt P22736).
T2 construct: expressed in transfected cells; host or cells: HEK293T
T2 sequence (P22736 whole entry): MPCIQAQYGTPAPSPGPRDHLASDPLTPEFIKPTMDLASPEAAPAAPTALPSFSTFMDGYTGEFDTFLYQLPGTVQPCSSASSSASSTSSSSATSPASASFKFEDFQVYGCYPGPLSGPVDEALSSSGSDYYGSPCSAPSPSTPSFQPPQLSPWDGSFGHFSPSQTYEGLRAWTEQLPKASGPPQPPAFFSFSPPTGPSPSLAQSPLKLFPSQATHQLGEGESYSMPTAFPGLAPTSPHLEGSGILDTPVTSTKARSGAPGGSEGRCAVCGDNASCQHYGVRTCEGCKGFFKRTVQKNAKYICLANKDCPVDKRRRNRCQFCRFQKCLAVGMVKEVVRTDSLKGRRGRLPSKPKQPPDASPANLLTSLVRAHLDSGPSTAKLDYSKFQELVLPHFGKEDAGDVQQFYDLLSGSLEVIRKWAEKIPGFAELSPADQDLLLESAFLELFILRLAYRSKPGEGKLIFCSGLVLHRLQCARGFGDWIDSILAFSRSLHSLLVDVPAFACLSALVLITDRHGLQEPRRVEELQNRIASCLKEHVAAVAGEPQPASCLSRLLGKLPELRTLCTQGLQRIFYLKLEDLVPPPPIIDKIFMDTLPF
In words: Co-immunoprecipitation (IP: Nur77; IB: PPARγ, Trim13) in HEK293T cells. To be noted: 1 × 10^−5 M, 24 h. The format is cell-based. How it is done: HEK293T cells were seeded overnight in 10 cm culture dishes and transfected with the Nur77 and PPARγ plasmids for 48 h. After transfection, T‐CY14 and ST‐CY14 were incubated with the cells for 24 h. The cells were then collected and lysed in 500 µL precooled NP40 lysis buffer (Beyotime, P0013F), which contained 20x […] and 50x phosphatase inhibitor. All the samples were prepared at a concentration of 1 mg mL^−1, and 0.5 mg of the sample was subsequently incubated overnight at 4 °C with 2 µg of Nur77 antibody (Proteintech, 12235‐1‐AP). The samples were then incubated with Protein A/G PLUS‐Agarose (Santa Cruz, sc‐2003) for 4 h at 4 °C. The beads were collected through centrifugation and washed five times with NP40 lysis buffer. Finally, 5x loading buffer was added to the buffer containing the beads for Western blot analysis of PPARγ antibody (Proteintech, 16643‐1‐AP), Trim13 antibody (Abcam, ab234847), and β‐actin antibody (epizyme, LF201).

The next data set relates to MCF7 cells. In words: Cell viability assay (CCK-8). To be noted: MCF7, 5 × 10^−6 M, 24 h. The format is cell-based, human.
The test system of the next data set is MDA-MB-231 cells. In words: qPCR of CD36 and FABP4. The format is cell-based. To be noted: n = 3. (In qPCR the cycle at which signal appears reflects the starting amount.)
In data set [1] the test system is MDA-BoM-1833 bone metastasis. In words: Bone metastatic breast cancer model (MDA-BoM-1833, left ventricle injection). The format is in vivo, mouse. The source says: Female BALB/c mice (4–5 weeks old, 16–18 g) and BALB/c mice (7–8 weeks old, 18–20 g) were provided by Shanghai Slake Experimental Animal Co., Ltd., and housed under specific pathogen‐free conditions for use in orthotopic xenograft tumor model experiments and bone metastasis tumor model experiments. The animal experiment was approved by the ethical committee of Shanghai University of Traditional Chinese Medicine (approval number: PZSHUTCM220627036).
To establish the bone metastasis tumor model, 1×10^5 cells were injected into the left ventricle of each mouse (7–8 weeks old), and surgery was monitored using a cardiac ultrasound instrument. The mice were randomly divided into three groups and treated with PBS (control group, n = 6), 5 mg kg^−1 ST‐CY14 (n = 6), and 10 mg kg^−1 ST‐CY14 (n = 6) Tumor cell metastasis was monitored using an in vivo imaging instrument (IVIS Spectrum, PerkinElmer, USA). by intraperitoneal injection of 20 mg kg^−1 D‐luciferin. The mice were treated with ST‐CY14 via intravenous injection using a 100 µL PBS solution every 2 days starting on the designated day after tumor cell injection. Bone tissue with MDA‐BoM‐1833 cell metastasis was obtained and stained for TRAP. The mice sera were collected and analyzed for BSP and β‐CTx levels using ELISA (Lengton, BPE10823, BPE10438). For the orthotopic xenograft tumor model, 3×10^6 cells were injected into the fourth pair of breast pads on the left side of the mouse (4–5 weeks old). The mice were treated with ST‐CY14 every two days once the tumor volume reached 30–50 mm^3, with the same groups as in the bone metastasis tumor model. The tumors were collected and stained for H&E, Ki‐67, and TUNEL assays, which were conducted by Wuhan Servicebio Technology Co., Ltd. Major organs (heart, liver, spleen, lung, and kidney) were also collected for H&E analysis by Wuhan Servicebio Technology Co., Ltd. The Transcriptome and LC/MS targeted lipid metabolome were sequenced by OE Biotech, Inc., Shanghai, China. To evaluate the efficacy of Csn‐B in inhibiting breast cancer bone metastasis, an animal model was established as described above. The mice were randomly divided into three groups and treated with PBS (control group, n = 6), 10 mg kg^−1 ST‐CY14 (n = 6) in 100 µL PBS solution, and 5 mg kg^−1 ST‐CY14 (n = 6) in a 100 µL mixed solution (5% DMSO, 20% PEG 400, 5% Tween 80, and 70% normal saline) via intravenous injection every 2 days starting on the designated day after tumor cell injection.

Where a SMILES comes first, the peptide text is derived from it. Bridges are numbered along the chain shown (N, C = ends). [ ]: non-standard residue; d: D form. S5 = C=CCCC[C@](C)(N)C(=O)O

T1 sequence (P22736 351-598): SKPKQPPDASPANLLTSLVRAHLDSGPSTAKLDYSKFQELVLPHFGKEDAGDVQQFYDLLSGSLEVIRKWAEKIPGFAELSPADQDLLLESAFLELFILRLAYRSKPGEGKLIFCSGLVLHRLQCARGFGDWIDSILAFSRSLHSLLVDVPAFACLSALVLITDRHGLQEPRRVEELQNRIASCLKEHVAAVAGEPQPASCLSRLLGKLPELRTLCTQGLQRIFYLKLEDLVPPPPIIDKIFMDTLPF
Experimental for MCF7 cells: MCF7, MDA‐MB‐231, and MDA‐BoM‐1833 cells (5000 cells/well) were seeded in 96‐well plates and cultured overnight at 37°C and 5% CO2. The cells were then treated with fresh basic medium containing various concentrations (1/2/5/10/20 × 10^−6 M) of compounds. After 24 h of incubation, the cells were incubated with a basic medium containing 10% Cell Counting Kit‐8 (Dojindo, CK‐04) for 2 h. Cell viability was evaluated by measuring the absorbance at 450 nm. The formula used was [(As‐Ab)/(Ac‐Ab)] × 100%, where as represents the absorbance of the drug‐treated group, Ac represents the absorbance of the control group treated with medium, and Ab represents the absorbance of the blank control containing only medium.

As for `C[C@@H](O)[C@@H]1NC(=O)[C@H](CCCNC(=N)N)NC(=O)[C@H](CCCNC(=N)N)NC(=O)[C@@](C)(NC(=O)[C@H](Cc2ccccc2)NC(=O)CNC(=O)[C@H](CCCCN)NC(=O)[C@H](CS)NC(=O)CNC(=O)[C@H](CCC(=O)O)NC(=O)[C@@H](N)CS)CCCC=CCCC[C@@](C)(C(=O)N[C@@H](CCCNC(=N)N)C(=O)N[C@@H](Cc2ccc(O)cc2)C(=O)N[C@@H](Cc2ccc(O)cc2)C(=O)NCC(=O)N[C@@H](CCCNC(=N)N)C(=O)N[C@@H](CCCCN)C(=O)N[C@@H](CCCCN)C(=O)N[C@@H](CCCNC(=N)N)C(=O)N[C@@H](CCCNC(=N)N)C(=O)N[C@@H](CCC(N)=O)C(=O)N[C@@H](CCCNC(=N)N)C(=O)N[C@@H](CCCNC(=N)N)C(=O)N[C@@H](CCCNC(=N)N)C(N)=O)NC1=O` [ST-CY14] (H-CEGCKGF[S5]RRT[S5]RYYGRKKRRQRRR-NH2; staple 8-12), the kon at Nur77-LBD is 1.6e+06 M⁻¹ s⁻¹. Besides, on Nur77-PPARγ interaction, the “Endogenous Nur77-PPARγ binding (Co-IP)” value was “inhibited the binding between Nur77 and PPARγ”; the “Trim13 and ubiquitination of Nur77 (Co-IP)” value is “obviously reduced the expression of Trim13 and attenuated the PPARγ‐induced ubiquitination of endogenous Nur77”. Further, the “Cell viability / proliferation” value with MCF7 cells is “significantly attenuated breast tumor cell proliferation”. Further, the “CD36 and FABP4 transcription (qPCR)” value in the data set with MDA-MB-231 cells was “dose‐dependently inhibited CD36 and FABP4 expression at the transcriptional level”. For the same molecule, in data set [1] (5 and 10 mg kg^−1 i.v. every 2 days, day 28, n = 6), the “Bone metastasis (bioluminescence imaging)” value is given as “inhibited the metastasis of tumor cells”. Moreover, the “H&E staining of major organs” value in data set [1] (heart, liver, spleen, lung, kidney, n = 3) is on record as “None of the groups demonstrated notable changes in H&E staining of major organs”. Besides, the “Efficacy in inhibiting bone metastasis compared with Csn-B” value in data set [1] (i.v. every 2 days, day 28, n = 6) is listed as “superior to that of Csn‐B”. The “TRAP level in mouse femoral head” value in data set [1] (staining of bone tissue) is reported as “decrease in the level of tartrate‐resistant acid phosphatase”. Further, in data set [1] (versus control group), the “BSP and β-CTx levels in mouse blood (ELISA)” value was “Lower levels”.
